{"source": "paper PMC10838953", "key": {"caspase-3 in 786-O cells": {"tested_on": "caspase-3 in 786-O cells", "conditions": "72 h, compounds at 20 μM"}, "AKT (S129)": {"tested_on": "AKT (S129)", "conditions": "786-O cells; 48 h"}, "[1]": {"tested_on": "AKT (S129) in 786-O cells"}, "[2]": {"tested_on": "tumor slices of clear cell renal carcinoma (786-O-luc xenograft)", "conditions": "10 μM CX-4945, 5 μM AB668"}, "HeLa cells": {"tested_on": "HeLa cells", "conditions": "cited from earlier work"}, "HEK293 cell line": {"tested_on": "HEK293 cell line", "conditions": "nontumor HEK293 cell line; cited from earlier work"}}, "note": "“And” between values parts separate entries of the source, which are not always exact repeats. Equal values may be shown once.", "data": [{"smiles": "CCC(=O)Nc1cc(Nc2cc(NC3CC3)n3ncc(C#N)c3n2)ccc1C", "note": "[SGC-CK2-1]", "values": [{"measurement": "caspase-3 activation", "setting": "caspase-3 in 786-O cells", "result": "did not activate caspase-3"}, {"measurement": "phosphorylation of S129AKT", "setting": "AKT (S129)", "result": "decreased, in a dose-dependent manner"}, {"measurement": "CK2 inhibition 8 h after inhibitor removal", "setting": "CK2 in 786-O cells", "result": "persisted"}, {"measurement": "pAKTS129 / AKT band quantification", "setting": "[1]", "result": 0.4}]}, {"smiles": "O=C(O)c1ccc2c(c1)nc(Nc1cccc(Cl)c1)c1ccncc12", "note": "[CX-4945, silmitasertib]", "values": [{"measurement": "caspase-3 activation", "setting": "caspase-3 in 786-O cells", "result": "induced caspase-3 activation"}, {"measurement": "phosphorylation of S129AKT", "setting": "AKT (S129)", "result": "decreased, in a dose-dependent manner"}, {"measurement": "NES: Cell recruitment (pro-inflammatory response)", "setting": "786-O cells", "result": 1.563}, {"measurement": "NES: Constitutive Signaling by NOTCH1 HD+PEST Domain Mutants", "setting": "786-O cells", "result": -1.497}, {"measurement": "NES: Constitutive Signaling by NOTCH1 PEST Domain Mutants", "setting": "786-O cells", "result": -1.497}, {"measurement": "NES: Export of Viral Ribonucleoproteins from Nucleus", "setting": "786-O cells", "result": 1.432}, {"measurement": "NES: G alpha (12/13) signalling events", "setting": "786-O cells", "result": -1.412}, {"measurement": "NES: HCMV Late Events", "setting": "786-O cells", "result": 1.511}, {"measurement": "NES: Infection with Mycobacterium tuberculosis", "setting": "786-O cells", "result": 1.475}, {"measurement": "NES: Interferon alpha/beta signaling", "setting": "786-O cells", "result": -1.554}, {"measurement": "NES: Purinergic signaling in leishmaniasis infection", "setting": "786-O cells", "result": 1.563}, {"measurement": "NES: Response of Mtb to phagocytosis", "setting": "786-O cells", "result": 1.605}, {"measurement": "NES: Rev-mediated nuclear export of HIV RNA", "setting": "786-O cells", "result": 1.427}, {"measurement": "NES: Signaling by NOTCH1 HD+PEST Domain Mutants in Cancer", "setting": "786-O cells", "result": -1.497}, {"measurement": "NES: Signaling by NOTCH1 PEST Domain Mutants in Cancer", "setting": "786-O cells", "result": -1.497}, {"measurement": "NES: Signaling by NOTCH1 in Cancer", "setting": "786-O cells", "result": -1.497}, {"measurement": "NES: Uptake and actions of bacterial toxins", "setting": "786-O cells", "result": 1.428}, {"measurement": "enrichmentScore: Cell recruitment (pro-inflammatory response)", "setting": "786-O cells", "result": 0.6607}, {"measurement": "enrichmentScore: Constitutive Signaling by NOTCH1 HD+PEST Domain Mutants", "setting": "786-O cells", "result": -0.4974}, {"measurement": "enrichmentScore: Constitutive Signaling by NOTCH1 PEST Domain Mutants", "setting": "786-O cells", "result": -0.4974}, {"measurement": "enrichmentScore: Export of Viral Ribonucleoproteins from Nucleus", "setting": "786-O cells", "result": 0.45}, {"measurement": "enrichmentScore: G alpha (12/13) signalling events", "setting": "786-O cells", "result": -0.5156}, {"measurement": "enrichmentScore: HCMV Late Events", "setting": "786-O cells", "result": 0.4357}, {"measurement": "enrichmentScore: Infection with Mycobacterium tuberculosis", "setting": "786-O cells", "result": 0.5692}, {"measurement": "enrichmentScore: Purinergic signaling in leishmaniasis infection", "setting": "786-O cells", "result": 0.6607}, {"measurement": "enrichmentScore: Response of Mtb to phagocytosis", "setting": "786-O cells", "result": 0.6338}, {"measurement": "enrichmentScore: Rev-mediated nuclear export of HIV RNA", "setting": "786-O cells", "result": 0.4457}, {"measurement": "enrichmentScore: Signaling by NOTCH1 HD+PEST Domain Mutants in Cancer", "setting": "786-O cells", "result": -0.4974}, {"measurement": "enrichmentScore: Signaling by NOTCH1 PEST Domain Mutants in Cancer", "setting": "786-O cells", "result": -0.4974}, {"measurement": "enrichmentScore: Signaling by NOTCH1 in Cancer", "setting": "786-O cells", "result": -0.4974}, {"measurement": "enrichmentScore: Uptake and actions of bacterial toxins", "setting": "786-O cells", "result": 0.5866}, {"measurement": "NES: SARS-CoV-1 activates/modulates innate immune responses", "setting": "786-O cells; R-HSA-9692916, CX4945 vs DMSO", "result": 1.374}, {"measurement": "enrichmentScore: SARS-CoV-1 activates/modulates innate immune responses", "setting": "786-O cells; R-HSA-9692916, CX4945 vs DMSO", "result": 0.4726}, {"measurement": "NES: SARS-CoV-1 modulates host translation machinery", "setting": "786-O cells; R-HSA-9735869, CX4945 vs DMSO", "result": -1.391}, {"measurement": "enrichmentScore: SARS-CoV-1 modulates host translation machinery", "setting": "786-O cells; R-HSA-9735869, CX4945 vs DMSO", "result": -0.4335}, {"measurement": "CK2 inhibition 8 h after inhibitor removal", "setting": "CK2 in 786-O cells", "result": "CK2 activity was restored to its initial level"}, {"measurement": "pAKTS129 / AKT band quantification", "setting": "[1]", "result": "0.3 and 0.4"}, {"measurement": "cell viability of tumor slices", "setting": "[2]", "result": "had no effect"}]}, {"smiles": "O=C(CCC(=O)NCCc1ccc(Cl)c(Cl)c1)NCCCCn1cnc2c(Br)c(Br)c(Br)c(Br)c21", "note": "[KN2]", "values": [{"measurement": "cytotoxicity", "setting": "HeLa cells", "result": 6, "unit": "µM"}, {"measurement": "cytotoxicity", "setting": "HEK293 cell line", "result": 16, "unit": "µM"}]}, {"smiles": "CN[C@@H]1C[C@H]2O[C@@](C)([C@@H]1OC)n1c3ccccc3c3c4c(c5c6ccccc6n2c5c31)C(=O)NC4", "note": "[staurosporine]", "values": [{"measurement": "caspase-3 activation", "setting": "caspase-3 in 786-O cells", "result": "induced caspase-3 activation"}]}]}
